We go through one compound from PMC12388884, “Discovery of Small-Molecule PD-L1 Inhibitors via Virtual Screening and Their Immune-Mediated Anti-Tumor Effects” (Pharmaceuticals, 2025).

Numbered stars: 1 amine (or outer) side, 2 acyl side, 3 side chain; on linkers, the order of the positions; unused ones are H or OH. Bridge positions count the residues as written; N and C are the ends. Square brackets hold non-standard residues; d marks the D form. Peptide text beside a SMILES is read from it. * marks the point of attachment. pTerphenylCO(4''-OnC5H11) = CCCCCOc1ccc(-c2ccc(-c3ccc(C(=O)*)cc3)cc2)cc1; Orn(4R-OH,5R-OH) = O=C([C@H](C[C@@H](O)[C@@H](O)N[*:3])N[*:1])[*:2]; hTyr(3S-OH,4S-OH) = N[C@H](C(=O)O)[C@H](O)[C@@H](O)c1ccc(O)cc1; Pro(3S-OH,4S-Me) = C[C@H]1CN[C@H](C(=O)O)[C@H]1O; Hyp = O=C(O)[C@@H]1C[C@@H](O)CN1

The assay deals with T1, PD-L1 (Homo sapiens, UniProt Q9NZQ7).
T1 construct: gene CD274
T1 sequence (Q9NZQ7 19-290): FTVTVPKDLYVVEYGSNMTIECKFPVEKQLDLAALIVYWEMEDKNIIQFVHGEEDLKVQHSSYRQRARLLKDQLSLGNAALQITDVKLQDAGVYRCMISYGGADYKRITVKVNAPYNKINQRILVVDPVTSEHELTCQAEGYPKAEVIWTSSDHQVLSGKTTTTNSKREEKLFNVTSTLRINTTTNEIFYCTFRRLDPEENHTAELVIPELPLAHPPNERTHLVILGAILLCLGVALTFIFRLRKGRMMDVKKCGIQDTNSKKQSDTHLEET
Nature of the assay: bio-layer interferometry (BLI), immobilized recombinant human PD-L1, […] global kinetic fit. Format: binding. In general terms: In BLI a coated tip is dipped into the sample, and binding shifts an interference pattern.

One may read the Kd as the concentration at which binding is half-saturated.

For `CCCCCOc1ccc(-c2ccc(-c3ccc(C(=O)N[C@H]4C[C@@H](O)[C@@H](O)NC(=O)[C@@H]5[C@@H](O)[C@@H](C)CN5C(=O)[C@H]([C@@H](C)O)NC(=O)[C@H]([C@H](O)[C@@H](O)c5ccc(O)cc5)NC(=O)[C@@H]5C[C@@H](O)CN5C(=O)[C@H]([C@@H](C)O)NC4=O)cc3)cc2)cc1` [anidulafungin] ({pTerphenylCO(4''-OnC5H11)}-[Orn(4R-OH,5R-OH)]T[Hyp][hTyr(3S-OH,4S-OH)]T[Pro(3S-OH,4S-Me)]; lactam 1-C), the equilibrium dissociation constant (Kd) came out at 76.9 µM.
